Activity calls are given as the source filed them. The rule behind the calls is not given here.
Assays:
L1210 = assay: Antitumor activity against mouse L1210 cells allografted in mouse at 100 mg/kg; type: functional, organism-based; set-up: dose 100 mg/kg
P388 = assay: Antitumor activity against mouse P388 cells allografted in mouse assessed as tumor growth inhibition at 100 mg/kg relative to control; type: functional

For `O=C(/C=C(\Cl)C(=O)NO)NO`, the Activity (L1210) was “inactive” and the T/C (P388) was 154%.

For `O=C(NO)c1cc(O)no1`, the Activity (L1210) was “inactive”.

— ChEMBL document CHEMBL3244261, “3-hydroxyisoxazole-5-hydroxamic acid” (1977)
